Patent US7351726B2, “Substituted oxadiazolidinediones” (Wyeth, priority 2003, dated 2008)

Columns and labels:
[1] = target: T1, recombinant human plasminogen activator inhibitor-1 (PAI-1) (Homo sapiens, UniProt P05121); test: Primary screen for PAI-1 inhibition (chromogenic tPA activity assay); format: biochemical; details: 100 μM compound; 140 nM PAI-1, 70 nM tPA; pH 6.6
T1 construct: purchased Molecular Innovations, Royal Oak, Mich
Procedure: Test compounds are dissolved in DMSO at a final concentration of 10 mM, then diluted 100× in physiologic buffer. The inhibitory assay is initiated by the addition of the substituted oxadiazolidinedione (1-100 μM final concentration, maximum DMSO concentration of 0.2%) in a pH 6.6 buffer containing 140 nM recombinant human plasminogen activator inhibitor-1 (PAI-1; Molecular Innovations, Royal Oak, Mich.). Following a 1 hour incubation at room temperature, 70 nM of recombinant human tissue plasminogen activator (tPA) is added, and the combination of the substituted oxadiazolidinedione, PAI-1 and tPA is incubated for an additional 30 minutes. Following the second incubation, Spectrozyme-tPA (American Diagnostica, Greenwich, CT), a chromogenic substrate for tPA, is added and absorbance read at 405 nm at 0 and 60 minutes. Relative PAI-1 inhibition is equal to the residual tPA activity in the presence of WAY and PAI-1. Control treatments include the complete inhibition of tPA by PAI-1 at the molar ratio employed (2:1), and the absence of any effect of the substituted oxadiazolidinedione on tPA alone.

human PAI-1 = human PAI-1 (Homo sapiens, UniProt P05121); test: Assay for determining IC50 of inhibition of PAI-1 (tPA-coated plate, antibody detection of active PAI-1); format: binding; details: active human PAI-1 bound to tPA-coated plate; pH 7.5; compound 1-50 μM
Chain of human PAI-1 (P05121 24-402): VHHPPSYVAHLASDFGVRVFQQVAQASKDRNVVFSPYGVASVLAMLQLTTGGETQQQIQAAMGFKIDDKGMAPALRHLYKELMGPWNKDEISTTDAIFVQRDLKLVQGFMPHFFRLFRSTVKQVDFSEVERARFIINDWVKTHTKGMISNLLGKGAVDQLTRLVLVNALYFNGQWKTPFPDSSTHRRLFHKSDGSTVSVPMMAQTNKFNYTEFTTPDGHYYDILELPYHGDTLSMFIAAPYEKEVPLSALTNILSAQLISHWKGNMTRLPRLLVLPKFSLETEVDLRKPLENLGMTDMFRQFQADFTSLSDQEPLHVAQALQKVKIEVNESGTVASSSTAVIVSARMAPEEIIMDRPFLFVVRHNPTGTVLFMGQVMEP
Procedure: This assay is based upon the non-SDS dissociable interaction between tPA and active PAI-1. Assay plates are initially coated with human tPA (10 μg/ml). Substituted oxadiazolidinedione of the present invention are dissolved in DMSO at 10 mM, then diluted with physiologic buffer (pH 7.5) to a final concentration of 1-50 μM. WAY compounds are incubated with human PAI-1 (50 ng/ml) for 15 minutes at room temperature. The tPA-coated plate is washed with a solution of 0.05% Tween 20 and 0.1% BSA, then the plate is blocked with a solution of 3% BSA. An aliquot of the substituted oxadiazolidinedione/PA-1 solution is then added to the tPA-coated plate, incubated at room temperature for 1 hour, and washed. Active PAI-1 bound to the plate is assessed by adding an aliquot of a 1:1000 dilution of the 33B8 monoclonal antibody against human PAI-1, and incubating the plate at room temperature for 1 hour (Molecular Innovations, Royal Oak, Mich.). […] The plate is incubated 45 minutes at room temperature, and color development is determined at OD405nm. The quantitation of active PAI-1 bound to tPA at varying concentrations of substituted oxadiazolidinedione is used to determine the IC50. Results are analyzed using a logarithmic best-fit equation. The assay sensitivity is 5 ng/ml of human PAI-1 as determined from a standard curve ranging from 0-100 ng/ml.

T1 sequence (P05121 24-402): as above

Structure (SMILES) | inhibition at 100 µM [1] [%] | melting point [°C] | IC50 (human PAI-1) [µM]
CC/C(=C\Cn1oc(=O)[nH]c1=O)c1ccc2c(Cc3ccccc3)c(CC)oc2c1 [Compound 2, E-2-[-3-(3-Benzyl-2-ethyl-benzofuran-6-yl)-pent-2-enyl]-[1,2,4]oxadiazolidine-3,5-dione] | 39 |  | 
CC/C(=C/Cn1oc(=O)[nH]c1=O)c1ccc2c(Cc3ccccc3)c(CC)oc2c1 [Compound 1, Z-2-[-3-(3-Benzyl-2-ethyl-benzofuran-6-yl)-pent-2-enyl]-[1,2,4]oxadiazolidine-3,5-dione] |  | 118 to 120 | 9.3
